Results on 20 compounds are retold here after PubChem BioAssay (NCI).

The structures appear in SMILES notation. “And” between values parts separate entries of the source, which are not always exact repeats. Equal entries are not always repeated.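 Results reflect a 48-hour exposure of cells in 96-well plates to compound at five concentrations. The concentration for 50% growth inhibition is given as GI50. The concentration for full growth arrest is given as TGI.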 Where a SMILES comes first, the peptide text is derived from it. [ ]: non-standard residue; d: D form. The star is where a group is joined. ξ: configuration not given here. X6 = FC(F)(F)c1cc(NC(=S)*)cc(C(F)(F)F)c1; ξF = NC(Cc1ccccc1)C(=O)O Bounds are passed on as bounds.

In the first experiment the test system is RXF 393 renal. Nature of the experiment: NCI anticancer screen, dose series, 48 h.
For the compound `CC(C)C/C(CC(=O)CCC(=O)Nc1ccccc1[N+](=O)[O-])=N\NC(=O)c1cc2ccccc2cc1O`, the TGI was > 100 µM.
Take `COc1ccc(-c2nc3sccn3c2/C(N)=N/C(=N)N)cc1OC`: the GI50 was > 100 µM and the TGI is > 100 µM.
`CC1=C(C(=O)Nc2ccc(Cl)c(Cl)c2)C(c2cccc(Oc3ccccc3)c2)NC(=S)N1` (stereo unspecified): the GI50 is 7.33 µM and the TGI was determined as 22.1 µM.
Consider `Nc1ccccc1SC(C[N+](=O)[O-])c1ccc2c(c1)OCO2` (stereo unspecified), for which the TGI was 3.33 µM.
Consider `O=C(/C=C/c1ccccc1)NC1C=Nc2ccc(Cl)cc2NC1=O` (stereo unspecified), for which the TGI came out at 52.4 µM.
`COC(=O)[C@@H](NC(=O)CNC(=O)[C@H]1CCCN1C(=O)C(Cc1ccccc1)NC(=S)Nc1cc(C(F)(F)F)cc(C(F)(F)F)c1)C(C)C` (stereo partly specified) (X6-[ξF][dP]GV-OMe): the GI50 is 1.95 µM and the TGI worked out at 3.5 µM.
For `COc1cc(Cc2cnc(/N=C3\C(=O)N(CN4CCN(c5c(F)cc6c(=O)c(C(=O)O)cn(C7CC7)c6c5OC)CC4C)c4ccc(F)cc43)nc2N)cc(OC)c1OC` (stereo unspecified) the same measures were 16 µM and 49.1 µM.
`COC1CCC2C(NS(=O)(=O)c3ccc(C)cc3)CCCC2O1` (stereo unspecified) (tested in a mixture with another compound): the TGI is > 34.5 µM.
Still for that read-out and setting: to `CN(C)C(=N)c1ccccc1` belongs > 100 µM; to `NNC(=O)Nc1cccnc1`, > 100 µM.
Still for that read-out and setting: under `CC1=C(C(=O)NCc2ccccc2)C(/C=C/c2ccccc2)C(C(=O)NCc2ccccc2)=C(C)N1` stands > 100 µM; under `C=C1C(=O)C23CC1CCC2C12CO[C@@H]4OCC(C)(CC[C@@H]1OC3=O)C42` (stereo partly specified), 6.72 µM.

The next experiment relates to HOP-92 NSCLC. In words: NCI anticancer screen, dose series, 48 h.
In turn, `CCOC(=O)[C@]1(OC(C)=O)C[C@H](OC(C)=O)[C@@H](C(F)COP(=O)(OCc2ccccc2)OCc2ccccc2)O1` (stereo partly specified) gave a TGI of 34.5 µM.
On to `O=C(O)c1ccccc1[Se][Se]c1ccccc1C(=O)O`, for which the TGI was > 100 µM.
Take `CC[C@@]1(O)C[C@H](OC2CC(N(C)C)C(O)C(C)O2)c2c(O)c3c(c(O)c2[C@H]1OC1CC(N(C)C)C(O)C(C)O1)C(=O)c1cccc(O)c1C3=O` (stereo partly specified): the GI50 was < 0.01 µM.
Consider `CC(C)=CC(=O)C1c2cccc(O)c2C(=O)c2c(O)cc(C)cc21` (stereo unspecified), for which the TGI was 7.83 µM.
As to `O=C(O)CCc1coc2ccc(O)cc12`, the TGI is > 100 µM.
Regarding `O=C(Nc1ccccc1)NS(=O)(=O)c1ccc(-n2nc3c(c2-c2cccs2)Cc2ccccc2-3)cc1`, the GI50 is 12.3 µM and the TGI was > 100 µM.
For the compound `CCCCCN(CCCCC)CC(O)c1cc(C)c2ccc3cc(C(C)C)ccc3c2c1` (stereo unspecified), the GI50 is 1.4 µM and the TGI came out at 2.85 µM.
For `CC(C)CCC[C@@H](C)[C@H]1CC[C@H]2[C@@H]3CC=C4C[C@@H](C(C(=O)O)C(=O)O)CC[C@]4(C)[C@H]3CC[C@]12C`, the GI50 was 0.307 µM and the TGI is 0.904 µM.
For the compound `CC(C)C/C(CC(=O)CCC(=O)Nc1ccccc1[N+](=O)[O-])=N\NC(=O)c1cc2ccccc2cc1O`, the TGI was > 100 µM.
On to `COc1ccc(-c2nc3sccn3c2/C(N)=N/C(=N)N)cc1OC`, for which the GI50 is 56.5 µM and the TGI was > 100 µM.
With `CC1=C(C(=O)Nc2ccc(Cl)c(Cl)c2)C(c2cccc(Oc3ccccc3)c2)NC(=S)N1` (stereo unspecified), the GI50 was 13.3 µM and the TGI worked out at 31.2 µM.
As to `Nc1ccccc1SC(C[N+](=O)[O-])c1ccc2c(c1)OCO2` (stereo unspecified), the TGI was found to be 30.2 µM.
As for `O=C(/C=C/c1ccccc1)NC1C=Nc2ccc(Cl)cc2NC1=O` (stereo unspecified), the TGI was > 100 µM.
Take `COC(=O)[C@@H](NC(=O)CNC(=O)[C@H]1CCCN1C(=O)C(Cc1ccccc1)NC(=S)Nc1cc(C(F)(F)F)cc(C(F)(F)F)c1)C(C)C` (stereo partly specified) (X6-[ξF][dP]GV-OMe): the GI50 was 1.95 µM and the TGI is 6.37 µM.
On to `COc1cc(Cc2cnc(/N=C3\C(=O)N(CN4CCN(c5c(F)cc6c(=O)c(C(=O)O)cn(C7CC7)c6c5OC)CC4C)c4ccc(F)cc43)nc2N)cc(OC)c1OC` (stereo unspecified), for which the GI50 was 7.64 µM and the TGI turned out to be 21.8 µM.
As to `COC1CCC2C(NS(=O)(=O)c3ccc(C)cc3)CCCC2O1` (stereo unspecified) (tested in a mixture with another compound), the TGI was found to be 28 µM.
For `CN(C)C(=N)c1ccccc1`, the TGI was > 100 µM.
With `NNC(=O)Nc1cccnc1`, the TGI is > 100 µM.
Turning to `CC1=C(C(=O)NCc2ccccc2)C(/C=C/c2ccccc2)C(C(=O)NCc2ccccc2)=C(C)N1`, the TGI is > 100 µM.
In turn, `C=C1C(=O)C23CC1CCC2C12CO[C@@H]4OCC(C)(CC[C@@H]1OC3=O)C42` (stereo partly specified) gave a TGI of 5.78 µM.

For the next experiment, the system named is RPMI-8226 leukemia. Nature of the experiment: NCI anticancer screen, dose series, 48 h.
Consider `CCOC(=O)[C@]1(OC(C)=O)C[C@H](OC(C)=O)[C@@H](C(F)COP(=O)(OCc2ccccc2)OCc2ccccc2)O1` (stereo partly specified), for which the TGI is 46.5 µM and 82.5 µM.
Still for that read-out and setting: under `O=C(O)c1ccccc1[Se][Se]c1ccccc1C(=O)O` stands > 100 µM.
On to `CC[C@@]1(O)C[C@H](OC2CC(N(C)C)C(O)C(C)O2)c2c(O)c3c(c(O)c2[C@H]1OC1CC(N(C)C)C(O)C(C)O1)C(=O)c1cccc(O)c1C3=O` (stereo partly specified), for which the GI50 was < 0.01 µM; the TGI is 0.581 µM and 0.0919 µM.
`CC(C)=CC(=O)C1c2cccc(O)c2C(=O)c2c(O)cc(C)cc21` (stereo unspecified): the TGI is 30.4 µM.
With `O=C(O)CCc1coc2ccc(O)cc12`, the TGI was > 100 µM.
As for `O=C(Nc1ccccc1)NS(=O)(=O)c1ccc(-n2nc3c(c2-c2cccs2)Cc2ccccc2-3)cc1`, the GI50 was 5.49 µM and the TGI was 66.4 µM.
For the compound `CCCCCN(CCCCC)CC(O)c1cc(C)c2ccc3cc(C(C)C)ccc3c2c1` (stereo unspecified), the GI50 is 2.11 µM and the TGI is 4.81 µM.
For `CC(C)CCC[C@@H](C)[C@H]1CC[C@H]2[C@@H]3CC=C4C[C@@H](C(C(=O)O)C(=O)O)CC[C@]4(C)[C@H]3CC[C@]12C` the same measures were 0.353 µM and 0.938 µM.
As to `CC(C)C/C(CC(=O)CCC(=O)Nc1ccccc1[N+](=O)[O-])=N\NC(=O)c1cc2ccccc2cc1O`, the TGI is > 100 µM.
For the compound `COc1ccc(-c2nc3sccn3c2/C(N)=N/C(=N)N)cc1OC`, the GI50 is 58.5 µM and the TGI was > 100 µM.
In the case of `CC1=C(C(=O)Nc2ccc(Cl)c(Cl)c2)C(c2cccc(Oc3ccccc3)c2)NC(=S)N1` (stereo unspecified), the GI50 is 11.2 µM and the TGI is > 50 µM.
Compound `Nc1ccccc1SC(C[N+](=O)[O-])c1ccc2c(c1)OCO2` (stereo unspecified) came in with a TGI of 4.42 µM.
For the compound `COc1cc(Cc2cnc(/N=C3\C(=O)N(CN4CCN(c5c(F)cc6c(=O)c(C(=O)O)cn(C7CC7)c6c5OC)CC4C)c4ccc(F)cc43)nc2N)cc(OC)c1OC` (stereo unspecified), the GI50 was 2.31 µM and the TGI stood at 8.24 µM.
`COC1CCC2C(NS(=O)(=O)c3ccc(C)cc3)CCCC2O1` (stereo unspecified) (tested in a mixture with another compound) had a TGI of 14.7 µM.
Take `NNC(=O)Nc1cccnc1`: the TGI was > 100 µM.
As for `CC1=C(C(=O)NCc2ccccc2)C(/C=C/c2ccccc2)C(C(=O)NCc2ccccc2)=C(C)N1`, the TGI is > 100 µM.
